Tests used:
[1] = system: vascular smooth muscle; test: inhibition of calcium induced contraction of vascular smooth muscle; set-up: species or system male Sprague-Dawley rats; details: 10^-7 M; contraction induced by 1.0 mM calcium chloride in depolarized rat vascular smooth muscle
Procedure: The property may be observed in a test in which segments of vascular smooth muscle obtained from male Sprague-Dawley rats are suspended in physiological salt solution in a tissue bath instrumented for recording contractions. After the tissue has been equilibrated, washed in calcium-free physiological salt solution and then depolarized, 1.0 mM calcium chloride is re-added to induce contraction. After the contraction has reached a plateau, tissues are washed and a test compound or vehicle is added to determine the effect on a second contraction achieved by the above cyclic protocol. From measuring the initial contraction as well as the second contraction in the presence of the test compound, the extent of inhibition may be calculated.

[2] = system: α2 -adrenoreceptor; test: neurogenic contractions of rat vas deferens (α2-adrenergic activity); details: electrically stimulated rat vas deferens
Procedure: (§1) In such determination, vas deferens of rat is suspended under tension between two platinum electrodes of an organ bath containing Tyrode's solution and contractile responses to electrical stimulation recorded. Agonist drug is added and EC50 values determined. After wash out, an antagonist drug is added and after a suitable period of contact with the tissue, the EC50 values of agonist in presence of antagonist are similarly determined.
(§2) These properties indicate suitability for use as an antidepressant.

[3] = system: α1 -adrenoreceptor; test: neurogenic contractions of rat vas deferens (α1-adrenergic activity); details: electrically stimulated rat vas deferens
Procedure: as §1, §2

Brc1ccc2c(c1)C(N=C1NCCN1)c1ccccc1C=C2.I (stereo not drawn) [N-(2-Imidazolidinylidene)-3-bromo-5H-dibenzo[a,d]cyclohepten-5-amine Hydroiodide]
inhibition at 0.1 µM [1]: 40% | antagonism of the inhibition of contractions produced by clonidine ([2]; agonist clonidine): antagonized the inhibition of contractions produced by clonidine | antagonism of the response to methoxamine ([3]; agonist methoxamine): antagonized the response to methoxamine with a similar order of potency | effect on neurogenic contractions of the rat vas deferens when given alone ([3]; compound alone): enhanced the neurogenic contractions of the rat vas deferens

C1=Cc2ccccc2C(N=C2NCCN2)c2ccccc21.I [N-(2-Imidazolidinylidene)-5H-dibenzo[a,d]cyclohepten-5-amine Hydroiodide]
inhibition at 0.1 µM [1]: 56% | effect on neurogenic contractions of the rat vas deferens ([2]; antagonism by rauwolscine): inhibit neurogenic contractions of the rat vas deferens which was antagonized by rauwolscine
